Patent US20230264009A1, “DISINFECTING CAP KIT FOR LUER ACCESS DEVICES” (SterileCare Inc., priority 2022, published 2023)

What was measured:
Escherichia coli ON29 = experiment: Checkerboard titration, FICI; type: cell-based; conditions: E. coli ON29
Protocol: (§1) A fourth composition and solution included tetrasodium EDTA with ethanol or chlorhexidine HCl. This fourth composition and solution were created using checkerboard titration methods using micro broth dilution in 96-well microtiter plates. The concentrations of antimicrobials used were based on previously determined MIC values. Briefly, 200 µL of two-fold dilutions of tetrasodium EDTA and ethanol or chlorhexidine HCl were prepared in MH or MH II broth with standardized cell suspension. […] Microtiter plates were incubated at 37° C. for 24 h, and the results were analyzed. Each test was performed in duplicate and included a growth control without adding any antimicrobials.

Proteus mirabilis ON153 = experiment: Checkerboard titration, FICI; type: cell-based; conditions: P. mirabilis ON153
Protocol: as §1

[1] = tested on: Staphylococcus epidermidis ON170; experiment: Checkerboard titration, FICI; type: cell-based; conditions: S. epidermidis ON170
Protocol: as §1

Candida albicans SK4b = experiment: Checkerboard titration, FICI; type: cell-based; conditions: C. albicans SK4b
Protocol: as §1

[2] = tested on: Stenotrophomonas maltophilia ON17; experiment: Checkerboard titration, FICI; type: cell-based; conditions: S. maltophilia ON17
Protocol: as §1

[3] = tested on: Staphylococcus aureus ON89; experiment: Checkerboard titration, FICI; type: cell-based; conditions: S. aureus ON89
Protocol: as §1

[4] = tested on: Pseudomonas aeruginosa SK1; experiment: Checkerboard titration, FICI; type: cell-based; conditions: P. aeruginosa SK1
Protocol: as §1

Serratia marcescens SK2 = experiment: Checkerboard titration, FICI; type: cell-based; conditions: S. marcescens SK2
Protocol: as §1

C. albicans ON47 biofilm = experiment: FBEC index, checkerboard dilution on biofilms; type: cell-based, Candida albicans
Protocol: (§2) In step (4), microtiter plates are incubated at 37° C. for 24 h. then (6), after incubation, the bacterial and fungal cells were dislodged from the pegs into the recovery medium described above.
(§3) Three 10-µL aliquots, for a total of 30 µL from each well of recovery medium, were spotted on MH agar plates and incubated for 24 h at 37° C. […] The FBEC determination is a modification of the FICI.

MRSA ON184 biofilm [5] = experiment: FBEC index, checkerboard dilution on biofilms; type: cell-based, Staphylococcus aureus
Protocol: as §2, §3

MRSA ON184 biofilm [6] = experiment: MBEC Assay, 48-h biofilm, 24 h exposure; type: cell-based, Staphylococcus aureus
Protocol: A biofilm cultivation cell composition was provided. This fifth composition was created using an MBEC Assay® biofilm inoculator, consisting of a polystyrene lid with 96 downward-protruding pegs and a corresponding base used to grow biofilms. A standardized inoculum was diluted in an appropriate biofilm growth medium to achieve a viable cell count of 1.5 × 10^6 CFU/mL of bacterial cells or […] CFU/mL of fungal cells. Then, 150 µL of this inoculum was transferred into each appropriate well, and the peg lids were inserted into the microtiter plates. The plates were sealed with Parafilm and were incubated at optimum temperature for 48 h with slight rocking for bacteria and shaking at 200 rpm for fungal strains. After incubation, the peg lid was removed from the base and rinsed twice with sterile phosphate-buffered saline (PBS) for 2 min to remove loosely attached non-sessile cells. Before the antimicrobial challenge, the pegs in column 1 (n = 8) were considered the biofilm growth control; these pegs were removed from the lids, placed into 200 µL of recovery medium, and analyzed for starting biofilm cell numbers as described below. […] MBEC values were determined as the minimum concentration of antimicrobials that yielded a viable cell count at or lower than the 125 CFU/mL detection limit.

S. epidermidis SK9 [7] = experiment: Checkerboard titration, FICI; type: cell-based, Staphylococcus epidermidis
Protocol: as §1

S. epidermidis SK9 [8] = experiment: Checkerboard titration, FMCI; type: cell-based, Staphylococcus epidermidis
Protocol: An assay was made using a minimum inhibitory concentration (MIC) and minimum bactericidal concentration (MBC) and minimum fungicidal concentration (MFC) determination. The MIC was determined by the micro broth dilution method in 96-well plates. Serial two-fold dilutions of tetrasodium EDTA (from 2% to 0.015%), ethanol (from 50% to 0.1%) and chlorhexidine HCl (from 100 µg/mL to 0.025 µg/mL) were prepared in MH broth with a final volume of 90 µL per well. A 10 µL containing 1 × 10^5 bacterial cells or 2 × 10^3 fungal cells were added to each well. The inoculated plates were covered with a lid, sealed with Parafilm, and incubated for 24 h at 37° C. with slight rocking on a tilting platform shaker. After incubation, the optical density at 600 nm (OD 600 ) of the cultures in each well was measured using an xMark™ Microplate Absorbance Spectrophotometer (Bio-Rad). […] MBCs and MFCs were determined by transferring 100 µL from each well with no apparent growth onto appropriate agar plates, followed by incubation for 24 h at 37° C.
as §1

[9] = tetrasodium EDTA + chlorhexidine HCl

O=C([O-])CN(CCN(CC(=O)[O-])CC(=O)[O-])CC(=O)[O-].[Na+].[Na+].[Na+].[Na+] [EDTA, tetrasodium EDTA]
Concentration in combination giving FICI (Escherichia coli ON29; [9]): 0.008 % w/v
Concentration in combination giving FICI (Escherichia coli ON29; tetrasodium EDTA + ethanol): 0.25 % w/v
Concentration in combination giving FICI (Proteus mirabilis ON153; [9]): 0.063 % w/v
Concentration in combination giving FICI (Proteus mirabilis ON153; tetrasodium EDTA + ethanol): 0.5 % w/v
Concentration in combination giving FICI [1, 9]: 0.063 % w/v
Concentration in combination giving FICI ([1]; tetrasodium EDTA + ethanol): 0.015 % w/v
Concentration in combination giving FICI (Candida albicans SK4b; [9]): 0.063 % w/v
Concentration in combination giving FICI (Candida albicans SK4b; tetrasodium EDTA + ethanol): 0.25 % w/v
Concentration in combination giving FICI [2, 9]: 0.015 % w/v
Concentration in combination giving FICI ([2]; tetrasodium EDTA + ethanol): 0.031 % w/v
Concentration in combination giving FICI [3, 9]: 0.008 % w/v
Concentration in combination giving FICI ([3]; tetrasodium EDTA + ethanol): 0.015 % w/v
Concentration in combination giving FICI [4, 9]: 0.5 % w/v
Concentration in combination giving FICI ([4]; tetrasodium EDTA + ethanol): 0.031 % w/v
Concentration in combination giving FICI (Serratia marcescens SK2; [9]): 0.063 % w/v
Concentration in combination giving FICI (Serratia marcescens SK2; tetrasodium EDTA + ethanol): 0.5 % w/v
FBEC (concentration in combination) (C. albicans ON47 biofilm; [9]): 0.031 % w/v
FBEC (concentration in combination) (C. albicans ON47 biofilm; tetrasodium EDTA + ethanol): 0.125 % w/v
FBEC (concentration in combination) (MRSA ON184 biofilm [5]; [9]): 0.031 % w/v
FBEC (concentration in combination) (MRSA ON184 biofilm [5]; tetrasodium EDTA + ethanol): 0.063 % w/v
MBEC (MRSA ON184 biofilm [6]): 2 % w/v
Concentration in combination giving FICI (S. epidermidis SK9 [7]; [9]): 0.015 % w/v
Concentration in combination giving FICI (S. epidermidis SK9 [7]; tetrasodium EDTA + ethanol): 0.015 % w/v
Concentration in combination giving FMCI (S. epidermidis SK9 [8]; [9]): 0.008 % w/v
Concentration in combination giving FMCI (S. epidermidis SK9 [8]; tetrasodium EDTA + ethanol): 0.031 % w/v
